Measurements published in publication PMC5015447 (Biochemistry, 2016).
Values joined by “and” are separate entries in the source; they are usually repeats but may differ in a detail not shown here. Identical values can stand only once. Like-named read-outs stand apart in the source and are kept apart here.

Columns and labels:
[1] = molecular target: E. coli cofactor-dependent phosphoglycerate mutase (dPGM) (Escherichia coli, UniProt P62707); test: biochemical; assay type: binding
S. cerevisiae dPGM = conditions: cited from earlier work
[2] = tested on: cofactor-dependent phosphoglycerate mutase (dPGM); conditions: cited from earlier work
dPGM K222A [3] = molecular target: T1, dPGM K222A (Escherichia coli, UniProt P62707, K223A); test: ATP binding by isothermal titration calorimetry, K222A; parameters: species or system E. coli
T1 sequence (P62707 whole entry K223A): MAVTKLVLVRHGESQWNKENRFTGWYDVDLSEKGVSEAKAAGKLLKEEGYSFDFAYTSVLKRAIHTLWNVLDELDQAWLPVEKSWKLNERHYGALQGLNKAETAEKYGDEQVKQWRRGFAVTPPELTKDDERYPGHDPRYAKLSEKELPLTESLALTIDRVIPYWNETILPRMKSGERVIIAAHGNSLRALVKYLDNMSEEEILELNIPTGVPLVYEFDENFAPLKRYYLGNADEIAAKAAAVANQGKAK

dPGM R115A [4] = molecular target: T2, dPGM R115A (Escherichia coli, UniProt P62707, R116A); test: Equilibrium unfolding of dPGM variant R115A with 1.0 mM ATP; assay type: binding, E. coli
T2 sequence (P62707 whole entry R116A): as the sequence (P62707 whole entry K223A) above, with R116A, A223K counted along it

dPGM R116A [5] = molecular target: T3, dPGM R116A (Escherichia coli, UniProt P62707, R117A); test: ATP binding by isothermal titration calorimetry, R116A; parameters: species or system E. coli
T3 sequence (P62707 whole entry R117A): as the sequence (P62707 whole entry K223A) above, with R117A, A223K counted along it

dPGM R9A [6] = molecular target: T4, dPGM R9A (Escherichia coli, UniProt P62707, R10A); test: ATP binding by isothermal titration calorimetry, R9A; parameters: species or system E. coli
T4 sequence (P62707 whole entry R10A): as the sequence (P62707 whole entry K223A) above, with R10A, A223K counted along it

dPGM K99A [7] = molecular target: T5, dPGM K99A (Escherichia coli, UniProt P62707, K100A); test: ATP binding by isothermal titration calorimetry, K99A; parameters: species or system E. coli
T5 sequence (P62707 whole entry K100A): as the sequence (P62707 whole entry K223A) above, with K100A, A223K counted along it

dPGM K99A [8] = molecular target: T5, dPGM K99A; test: Equilibrium unfolding of dPGM variant K99A with 1.0 mM ATP; assay type: binding, E. coli
dPGM R115A [9] = molecular target: T2, dPGM R115A; test: ATP binding by isothermal titration calorimetry, R115A; parameters: species or system E. coli
dPGM R9A [10] = molecular target: T4, dPGM R9A; test: Equilibrium unfolding of dPGM variant R9A with 1.0 mM ATP; assay type: binding, E. coli
Wild-type dPGM = Wild-type dPGM (Escherichia coli, UniProt P62707); test: ATP binding by isothermal titration calorimetry, wild-type dPGM; parameters: species or system E. coli
Wild-type dPGM, sequence (P62707 whole entry): as the sequence (P62707 whole entry K223A) above, with A223K counted along it

dPGM R116A [11] = molecular target: T3, dPGM R116A; test: Equilibrium unfolding of dPGM variant R116A with 1.0 mM ATP; assay type: binding, E. coli
dPGM K222A [12] = molecular target: T1, dPGM K222A; test: Equilibrium unfolding of dPGM variant K222A; assay type: binding, E. coli
[13] = ligand 1.0 mM, one global fit of all nucleotide data sets
[14] = 50 mM phosphate, global fit with no-ligand data
[15] = 50 mM phosphate, global fit with no-ligand data (shared m-value)

E. coli cofactor-dependent phosphoglycerate mutase (dPGM), sequence (P62707 whole entry): as the sequence (P62707 whole entry K223A) above, with A223K counted along it

## Nc1ncnc2c1ncn2[C@@H]1O[C@H](COP(=O)(O)OP(=O)(O)O)[C@@H](O)[C@H]1O [ADP, adenosine diphosphate]
[1]
  Kd: 18 ± 3 µM
[1]; ligand 1.0 mM
  effect on equilibrium unfolding (first unfolding transition): significantly shift the first unfolding transition to higher urea concentrations
  ΔΔGI-N° = ΔGI-N°(ligand) – ΔGI-N°(no ligand): 4.8 (± 0.1) kcal/mol
[1]; [13]
  ΔGI-N°: 16.4 (± 0.1) kcal/mol
  ΔGU-I: 5.2 (± 0.2) kcal/mol

## Nc1ncnc2c1ncn2[C@@H]1O[C@H](COP(=O)(O)O)[C@@H](O)[C@H]1O [AMP, adenosine monophosphate]
[1]; calculated with Eq. 6 from stability increase, ligand 1.0 mM
  Kd: 240 ± 40 µM
[1]; ligand 1.0 mM
  effect on equilibrium unfolding (first unfolding transition): significantly shift the first unfolding transition to higher urea concentrations
  ΔΔGI-N° = ΔGI-N°(ligand) – ΔGI-N°(no ligand): 1.96 (± 0.09) kcal/mol
[1]; [13]
  ΔGI-N°: 13.6 (± 0.1) kcal/mol
  ΔGU-I: 5.5 (± 0.2) kcal/mol

## Nc1ncnc2c1ncn2[C@@H]1O[C@H](COP(=O)(O)OP(=O)(O)OP(=O)(O)O)[C@@H](O)[C@H]1O [ATP, adenosine triphosphate]
S. cerevisiae dPGM
  stabilization in energetics-based proteome screen: stabilizes
[2]; 1.0 mM ATP
  stabilization by pulse proteolysis with purified dPGM: stabilization
dPGM K222A [3]
  Kd: 0.4 ± 0.1 µM
dPGM K222A [3]; K222A
  ΔΔGbind° = ΔGbind°(varient) – ΔGbind°(WT): –0.1 ± 0.2 kcal/mol
dPGM K222A [3]; K222A, calculated with Eq. 6 using [ATP] = 1.0 mM
  ΔGbind°: 4.6 ± 0.1 kcal/mol
dPGM R115A [4]
  ΔGATP° = ΔGI-N°(1 mM ATP) - ΔGI-N°(No ATP): 4.8 ± 0.4 kcal/mol
  ΔGI-N°: 19.4 ± 0.3 kcal/mol
  ΔGU-I°: 5 ± 1 kcal/mol
  ΔΔGATP° = ΔGATP°(variant) – ΔGATP°(WT): –1.1 ± 0.2 kcal/mol
dPGM R116A [5]
  Kd: 1.5 ± 0.3 µM
dPGM R116A [5]; R116A
  ΔΔGbind° = ΔGbind°(varient) – ΔGbind°(WT): –0.9 ± 0.2 kcal/mol
dPGM R116A [5]; R116A, calculated with Eq. 6 using [ATP] = 1.0 mM
  ΔGbind°: 3.8 ± 0.1 kcal/mol
dPGM R9A [6]
  Kd: 5.5 ± 0.5 µM
dPGM R9A [6]; R9A
  ΔΔGbind° = ΔGbind°(varient) – ΔGbind°(WT): –1.7 ± 0.1 kcal/mol
dPGM R9A [6]; R9A, calculated with Eq. 6 using [ATP] = 1.0 mM
  ΔGbind°: 3.1 ± 0.05 kcal/mol
dPGM K99A [7]
  Kd: 7 ± 2 µM
dPGM K99A [7]; K99A
  ΔΔGbind° = ΔGbind°(varient) – ΔGbind°(WT): –1.8 ± 0.2 kcal/mol
dPGM K99A [7]; K99A, calculated with Eq. 6 using [ATP] = 1.0 mM
  ΔGbind°: 2.9 ± 0.2 kcal/mol
dPGM K99A [8]
  ΔGI-N°: 18.5 ± 0.2 kcal/mol
  ΔGU-I°: 6 ± 1 kcal/mol
  ΔΔGATP° = ΔGATP°(variant) – ΔGATP°(WT): –1.5 ± 0.2 kcal/mol
[1]
  Kd: 1.5 ± 0.5 µM
[1]; 1.0 µM dPGM, 1.0 mM ATP, native conditions
  effective stability (ΔGeff): 5.4 kcal/mol
[1]; 1.0 mM ATP
  Cm of the single apparent unfolding transition: about 3.6 M urea
  increase in stability per monomeric unit: 3.5 kcal/mol
[1]; 1.0 mM ATP, 2.5 M urea, per monomer
  ΔG° of binding of ATP to the native dimer (N2): –3.5 kcal/mol
[1]; 1.0 mM ATP, Table 1 fit
  increase in ΔGI-N° (ΔGATP°) of wild type: 7.0 ± 0.2 kcal/mol and 7.0 kcal/mol
[1]; 1.0 mM ATP, around 3.7 M urea
  maximum fraction of intermediate: 0.12
[1]; 1.0 mM ATP, called insignificant
  effect on ΔGU-I°: 0.6 kcal/mol
[1]; 1.0 mM ATP, fluorescence
  ΔGU-N°: 30.5 ± 0.8 kcal/mol
[1]; 1.0 mM ATP, fluorescence, global fit with no-ATP data, 30 µg/mL dPGM, pH 8.0
  ΔGI-N: 18.5 ± 0.2 kcal/mol
[1]; 2.5 M urea, 1.0 mM ATP, 1 µM dPGM
  effective free energy change, I to N2•L2: –2.4 kcal/mol per monomer
[1]; 2.5 M urea, 1.0 mM ATP, from Table 1 and Eq. 2
  ΔGN-I° for reaction from I to N2•L2: –12.5 kcal/mol
[1]; ligand 1.0 mM
  ΔΔGI-N° = ΔGI-N°(ligand) – ΔGI-N°(no ligand): 7.7 (± 0.2) kcal/mol
[1]; [13]
  ΔGI-N°: 19.3 (± 0.2) kcal/mol
  ΔGU-I: 5.0 (± 0.3) kcal/mol
dPGM R115A [9]
  Kd: 7 ± 2 µM
dPGM R115A [9]; R115A
  ΔΔGbind° = ΔGbind°(varient) – ΔGbind°(WT): –1.8 ± 0.2 kcal/mol
dPGM R115A [9]; R115A, calculated with Eq. 6 using [ATP] = 1.0 mM
  ΔGbind°: 2.9 ± 0.2 kcal/mol
dPGM R9A [10]
  ΔGATP° = ΔGI-N°(1 mM ATP) - ΔGI-N°(No ATP): 4.2 ± 0.2 kcal/mol
  ΔGI-N°: 16.6 ± 0.2 kcal/mol
  ΔGU-I°: 6.3 ± 0.5 kcal/mol
  ΔΔGATP° = ΔGATP°(variant) – ΔGATP°(WT): –1.4 ± 0.1 kcal/mol
Wild-type dPGM
  Kd: 0.32 ± 0.07 µM
Wild-type dPGM; WT, calculated with Eq. 6 using [ATP] = 1.0 mM
  ΔGbind°: 4.7 ± 0.1 kcal/mol
dPGM R116A [11]
  ΔGATP° = ΔGI-N°(1 mM ATP) - ΔGI-N°(No ATP): 5.4 ± 0.2 kcal/mol
  ΔGI-N°: 18.1 ± 0.2 kcal/mol
  ΔGU-I°: 5.8 ± 0.4 kcal/mol
  ΔΔGATP° = ΔGATP°(variant) – ΔGATP°(WT): –0.8 ± 0.1 kcal/mol
dPGM K222A [12]
  ΔGATP° = ΔGI-N°(1 mM ATP) - ΔGI-N°(No ATP): 9 ± 2 kcal/mol
dPGM K222A [12]; 1.0 mM ATP
  ΔGI-N°: 21 ± 2 kcal/mol
  ΔGU-I°: 4.4 ± 0.9 kcal/mol
  ΔΔGATP° = ΔGATP°(variant) – ΔGATP°(WT): 1.2 ± 1 kcal/mol

## Nc1ncnc2c1ncn2[C@@H]1O[C@H](CO[P@](=O)(O)O[P@](=O)(O)O[P@@](=O)(O)S)[C@@H](O)[C@H]1O [ATPγS]
[2]; E. coli lysate, 2.0 M urea, 1.0 mM ATPγS
  protein remaining intact after pulse proteolysis: a significant population of the protein remained intact

## Nc1ncnc2c1ncn2[C@@H]1O[C@H](CO)[C@@H](O)[C@H]1O [Adenosine, adenosine]
[1]; ligand 1.0 mM
  effect on equilibrium unfolding (first unfolding transition): negligible
  ΔΔGI-N° = ΔGI-N°(ligand) – ΔGI-N°(no ligand): 0.09 (± 0.07) kcal/mol
[1]; [13]
  ΔGI-N°: 11.7 (± 0.1) kcal/mol
  ΔGU-I: 5.6 (± 0.2) kcal/mol

## Nc1nc2c(ncn2[C@@H]2O[C@H](COP(=O)(O)OP(=O)(O)OP(=O)(O)O)[C@@H](O)[C@H]2O)c(=O)[nH]1 [GTP, guanosine triphosphate]
[1]
  Kd: 0.4 ± 0.5 µM
[1]; ligand 1.0 mM
  effect on equilibrium unfolding (first unfolding transition): significantly shift the first unfolding transition to higher urea concentrations
  ΔΔGI-N° = ΔGI-N°(ligand) – ΔGI-N°(no ligand): 9.3 (± 0.8) kcal/mol
[1]; [13]
  ΔGI-N°: 20.9 (± 0.8) kcal/mol
  ΔGU-I: 4.3 (± 0.6) kcal/mol

## O=P(O)(O)OP(=O)(O)O [Pyrophosphate]
[1]
  Kd: 1.2 ± 0.2 µM
  mI-N: 2.47 (± 0.04) kcal mol^−1M^−1
  mU-I: 1.62 (± 0.09) kcal mol^−1M^−1
  ΔGI-N°: 16.8 (± 0.1) kcal/mol
  ΔGU-I: 5.2 (± 0.3) kcal/mol
  ΔΔGI-N°: 5.3 (± 0.1) kcal/mol

## phosphate
[1]; 50 mM phosphate
  ΔΔGI-N°: 5.9 (± 0.1) kcal/mol
[1]; [14]
  ΔGI-N°: 17.3 (± 0.1) kcal/mol
  ΔGU-I: 5.6 (± 0.3) kcal/mol
[1]; [15]
  mI-N: 2.36 (± 0.03) kcal mol^−1M^−1
  mU-I: 1.82 (± 0.08) kcal mol^−1M^−1
[1]; calculated with Eq. 6, 50 mM phosphate
  Kd: 350 ± 60 µM
